# What was measured:
# EGFR and HER2 [1] = experiment: Western blotting of whole cell lysates: EGFR and HER2; assay type: cell-based, human; settings: HB-EGF 20 ng/ml alone, without PEPD^G278D and FBS
# Procedure: (§1) To prepare whole cell lysates, cells were washed with PBS twice, mixed with 1× cell lysis buffer from Cell Signaling Technology supplemented with 2 mM PMSF and a protease inhibitor cocktail from Roche Applied Science, placed on ice for 10 min, sonicated at 0-4° C. to enhance cell lysis using a Branson Model 450 sonifier, and finally centrifuged at 13,000 g for 10 min at 4° C., and the supernatant fraction is collected as whole cell lysate. Tumor and samples were mixed with RIPA buffer (25 mM Tris-HCl, PH7.6, 150 mM NaCl, 1% Nonidet P-40, 1% sodium deoxycholate, and 0.1% SDS), which was supplemented with 2 mM PMSF, the protease inhibitor cocktail mentioned above, phosphatase inhibitor cocktail 2 and phosphatase inhibitor cocktail 3 from Sigma-Aldrich at 14.3 μl buffer per mg tissue, and homogenized in a Dounce homogenizer. The homogenates were cleared by centrifugation at 13,000 g for 15 min at 4° C.
# (§2) Protein concentrations in all samples were measured using the BCA Assay Kit. For Western blotting, each sample was mixed with 4× loading dye, heated for 5 min at 95° C., and resolved by SDS-PAGE (8-12.5%). Proteins were transferred to polyvinylidene fluoride membrane, probed with specific antibodies, and detected using either Luminata Classico (Millipore) or Luminata Cresendo (Millipore). For IP, cell lysates (0.5 mg protein/sample) were incubated with a desired antibody overnight at 4° C., followed by incubation of 500 μl sample with 30 μl G-Sepharose beads (2 mg/ml) for 1 h at RT. The beads were washed three times with IP buffer, suspended in 2× SDS loading buffer, boiled for 5 min, and analyzed by Western blotting.
# EGFR and HER2 [2] = biological target: T1, EGFR and HER2 (Homo sapiens, UniProt P00533); experiment: as above; assay type: cell-based; settings: HB-EGF 20 ng/ml in medium without serum
# T1 construct: Both EGFR and HER2 were expressed in HCT116, HT29, and SW48 cells; endogenous in cells; host or cells: HCT116, HT29, SW48 (SW620 lacks both)
# Procedure: as §1, §2
# HCT116 cells = experiment: MTT cell proliferation assay; assay type: cell-based, human; settings: 24, 48 or 72 h, PEPD^G278D 5-250 nM, cetuximab 2.75-275 nM, panitumumab 2.77-277 nM
# Procedure: (§3) Cells were grown in 96-well plates. […] The cells were then washed with PBS and mixed with dimethyl sulfoxide (150 μl per well), and cell density was determined by measuring the reduction of MTT to formazan spectroscopically at 570 nm using a Synergy 2 Multi-Mode Microplate Reader (BioTek). In experiments involving siRNA transfection, 2×10^3 HCT116 cells or 6×10^3 HT29 cells were seeded to each well of 96-well plates overnight and then transfected 25 nM siRNA (scramble siRNA, EGFR siRNA or HER2 siRNA) as described above, followed by MTT assay.
# SW48 cells = experiment: MTT cell proliferation assay; assay type: cell-based, human; settings: 24, 48 or 72 h, PEPD^G278D 5-250 nM, cetuximab 2.75-275 nM, panitumumab 2.77-277 nM
# Procedure: as §3
# HT29 cells = experiment: MTT cell proliferation assay; assay type: cell-based, human; settings: 24, 48 or 72 h, PEPD^G278D 5-250 nM, cetuximab 2.75-275 nM, panitumumab 2.77-277 nM
# Procedure: as §3
# [3] = system: HER3, MET, IGF1R, SRC, AKT, ERK, MEK; experiment: Western blotting of whole cell lysates: other RTKs and downstream signaling proteins; assay type: cell-based, human; settings: HCT116, HT29 and SW620 cells; 275-277 nM, 48 h
# Procedure: as §1, §2
# [4] = system: HER3, IGF1R, MET, SRC, AKT, ERK, MEK, NRAS, HRAS, caspase 3; experiment: Western blotting of tumor homogenates: other signaling proteins; assay type: in vivo, mouse; settings: HCT116 and HT29 tumors; single agent
# Procedure: as §1
# as §2, with “For IP, cell lysates (0.5 mg protein/sample) were incubated with a desired antibody overnight at 4° C., followed by incubation of 500 μl sample with 30 μl G-Sepharose beads (2 mg/ml) for 1 h at RT.” left out
# SCID mice (C.B.17 SCID) were bred by the Laboratory Animal Shared Resource at Roswell Park Comprehensive Cancer Center. […] Subcutaneous tumor volume was measured using length ×width^2÷2. Tumor volume was measured three times each week. Orthotopic tumor growth was monitored by bioluminescence weekly. Mice were given D-luciferin (150 mg/kg) by ip and anesthetized with isoflurane, and tumor burden was measured by bioluminescence using the IVIS Spectrum In Vivo Imaging System (PerkinElmer). Drug treatment was started when significant tumor growth was detected. […] The mice were closely monitored for sign of adverse effects and weighed three times each week.
# HT29 tumors = experiment: Subcutaneous HT29 tumors in SCID mice; assay type: in vivo, mouse; settings: sc HT29 tumors; 5-FU 35 mg/kg ip every 4 days (FIG. 14)
# Procedure: SCID mice (C.B.17 SCID) were bred by the Laboratory Animal Shared Resource at Roswell Park Comprehensive Cancer Center. Male mice at 7-8 weeks of age were used. All mouse experiments were approved by the Institutional Animal Care and Use Committee at Roswell Park Comprehensive Cancer Center under protocol 1022M. We established subcutaneous tumors by inoculating 1×10^6 HCT116 cells, 4×10^6 HT29 cells, or 2×10^6 SW48 cells to the flank of each mouse in 100 μl of serum free medium. Colon patient-derived xenograft (PDX) 14650 was established from a liver metastatic lesion in a patient treated at Roswell Park Comprehensive Cancer Center. Tumor fragments (˜20 mm^3) from donor mice were implanted into the flank of each mouse subcutaneously using a trocar. Orthotopic colon tumors in mice were established by inoculating HCT116 cells stably transfected with firefly luciferase (2×10^6 cells in 50 μl of 50% serum-free medium and 50% Matrigel) to the caecum wall of each mouse. Mice in each tumor model were randomized cage-wise into treatment groups using Research Randomizer (www.randomizer.org). Subcutaneous tumor volume was measured using length ×width^2÷2. Tumor volume was measured three times each week. Orthotopic tumor growth was monitored by bioluminescence weekly. Mice were given D-luciferin (150 mg/kg) by ip and anesthetized with isoflurane, and tumor burden was measured by bioluminescence using the IVIS Spectrum In Vivo Imaging System (PerkinElmer). Drug treatment was started when significant tumor growth was detected. EP (0.5 mg/kg) was administered to mice ip once daily. PEPD^G278D (4 mg/kg) was administered to mice ip thrice weekly (Monday, Wednesday, Friday). Aderbasib (60 mg/kg) was administered to mice by gavage once daily. 5-FU (35 mg/kg) was administered to mice ip twice weekly (Monday and Thursday). EP, PEPD^G278D and 5-FU were administered to mice in PBS. Aderbasib was first dissolved in DMSO and then diluted by PBS (final 5% DMSO by volume). […] The mice were closely monitored for sign of adverse effects and weighed three times each week. […]
# [5] = Monitoring of mice for signs of adverse effects; assay type: in vivo; settings: mouse, in vivo, ip, 35 mg/kg
# Procedure: SCID mice (C.B.17 SCID) were bred by the Laboratory Animal Shared Resource at Roswell Park Comprehensive Cancer Center. Male mice at 7-8 weeks of age were used. All mouse experiments were approved by the Institutional Animal Care and Use Committee at Roswell Park Comprehensive Cancer Center under protocol 1022M. We established subcutaneous tumors by inoculating 1×10^6 HCT116 cells, 4×10^6 HT29 cells, or 2×10^6 SW48 cells to the flank of each mouse in 100 μl of serum free medium. Colon patient-derived xenograft (PDX) 14650 was established from a liver metastatic lesion in a patient treated at Roswell Park Comprehensive Cancer Center. Tumor fragments (˜20 mm^3) from donor mice were implanted into the flank of each mouse subcutaneously using a trocar. […] Subcutaneous tumor volume was measured using length ×width^2÷2. Tumor volume was measured three times each week. Orthotopic tumor growth was monitored by bioluminescence weekly. Mice were given D-luciferin (150 mg/kg) by ip and anesthetized with isoflurane, and tumor burden was measured by bioluminescence using the IVIS Spectrum In Vivo Imaging System (PerkinElmer). Drug treatment was started when significant tumor growth was detected. […] The mice were closely monitored for sign of adverse effects and weighed three times each week. […]
# HCT116 tumors = experiment: Subcutaneous HCT116 tumors in SCID mice; assay type: in vivo, mouse; settings: sc HCT116 tumors; 5-FU 35 mg/kg ip every 3-4 days, alone or with EP and PEPD^G278D 4 mg/kg, without aderbasib (FIG. 14)
# Procedure: SCID mice (C.B.17 SCID) were bred by the Laboratory Animal Shared Resource at Roswell Park Comprehensive Cancer Center. Male mice at 7-8 weeks of age were used. All mouse experiments were approved by the Institutional Animal Care and Use Committee at Roswell Park Comprehensive Cancer Center under protocol 1022M. We established subcutaneous tumors by inoculating 1×10^6 HCT116 cells, 4×10^6 HT29 cells, or 2×10^6 SW48 cells to the flank of each mouse in 100 μl of serum free medium. Colon patient-derived xenograft (PDX) 14650 was established from a liver metastatic lesion in a patient treated at Roswell Park Comprehensive Cancer Center. Tumor fragments (˜20 mm^3) from donor mice were implanted into the flank of each mouse subcutaneously using a trocar. Orthotopic colon tumors in mice were established by inoculating HCT116 cells stably transfected with firefly luciferase (2×10^6 cells in 50 μl of 50% serum-free medium and 50% Matrigel) to the caecum wall of each mouse. Mice in each tumor model were randomized cage-wise into treatment groups using Research Randomizer (www.randomizer.org). Subcutaneous tumor volume was measured using length ×width^2÷2. Tumor volume was measured three times each week. Orthotopic tumor growth was monitored by bioluminescence weekly. Mice were given D-luciferin (150 mg/kg) by ip and anesthetized with isoflurane, and tumor burden was measured by bioluminescence using the IVIS Spectrum In Vivo Imaging System (PerkinElmer). Drug treatment was started when significant tumor growth was detected. EP (0.5 mg/kg) was administered to mice ip once daily. […] Aderbasib (60 mg/kg) was administered to mice by gavage once daily. 5-FU (35 mg/kg) was administered to mice ip twice weekly (Monday and Thursday). EP, PEPD^G278D and 5-FU were administered to mice in PBS. Aderbasib was first dissolved in DMSO and then diluted by PBS (final 5% DMSO by volume). Each agent was administered to mice at 0.1 ml volume per 20 g body weight. When a mouse was given multiple agents on the same day, the agents were dosed at approximately 30 min intervals. The mice were closely monitored for sign of adverse effects and weighed three times each week. Mice were sacrificed 24-48 hours after the last treatment, at which point the tumors were promptly removed, snap frozen and stored at −80° C. for later analysis. Some tumors were fixed in 10% buffered formalin, paraffin embedded, cut at 4 μm, and stained with hematoxylin and eosin (H & E) for histological analysis.
# EGFR = experiment: Immunofluorescence staining and confocal microscopy of EGFR trafficking in SW48 cells; assay type: cell-based, human; settings: chloroquine 25 μM plus PEPD^G278D 25 nM
# Procedure: SW48 cells were grown in chamber slides (4×10^4 cells/well) overnight with or without subsequent treatment with PEPD^G278D (25 nM) and/or chloroquine (25 μM) for up to 6 h. The cells were then washed with ice-cold PBS, fixed with 4% paraformaldehyde for 20 min at room temperature (RT), washed again with ice-cold PBS and blocked with 1% BSA in PBS for 1 h at RT. The cells were then incubated with an EGFR antibody, a His tag antibody for detection of PEPD^G278D, and/or a LAMP1 antibody overnight at 4° C., washed with PBS, incubated with a secondary antibody conjugated to Alexa-Fluor 488 or Alexa-Fluor 647 antibody for 1 h at RT and washed again with PBS. The cells were then examined with a BZ-X700 fluorescence microscope (Keyence) with a S PL FL ELWD ADM 40xC objective. Merged images from Z-stack were organized using the ImageJ software (NIH Image).
compound,measurement,setting,value
"HB-EGF: recombinant human HB-EGF, a high affinity EGFR ligand [reference compound]",expression of EGFR or HER2,EGFR and HER2 [1],did not modulate the expression
same,effect on EGFR depletion induced by PEPD^G278D,EGFR and HER2 [2],mimicked the effect of serum
panitumumab [reference compound],cell growth measured by MTT assay,HCT116 cells,neither agent is active
same,cell growth measured by MTT assay,SW48 cells,inhibited the growth of SW48 cells in a time- and concentration-dependent manner
same,cell growth measured by MTT assay,HT29 cells,neither agent is active
same,effect on MET and ERK,[3],neither cetuximab nor panitumumab had any effect
enoxaparin [EP],expression or phosphorylation of the proteins analyzed in tumors,[4],neither EP nor aderbasib had any effect
"O=c1[nH]cc(F)c(=O)[nH]1 [5-FU, fluorouracil]",tumor growth,HT29 tumors,ineffective
same,toxicity in a dose-finding experiment,[5],not toxic
same,tumor growth,HCT116 tumors,ineffective
"CCN(CC)CCCC(C)Nc1ccnc2cc(Cl)ccc12 (centres unmarked) [chloroquine, reference compound]",EGFR degradation induced by PEPD^G278D,EGFR,blocked EGFR degradation

# Source: US20250009852A1, “DEPLETING EGFR AND HER2 OVERCOMES RESISTANCE TO EGFR INHIBITORS IN COLORECTAL CANCER” (Health Research, Inc., priority 2021, published 2025)
